{"source": "patent US20100173872A1", "about": "“Method and Composition for Treating Alzheimer's Disease and Dementias of Vascular Origin” (THE BOARD OF TRUSTEES OF THE UNIVERSITY OF ILLINOIS, priority 2002, published 2010)", "key": {"[1]": {"system": "ET receptor", "conditions": "cited from earlier work; for effect of pretreatment on systemic hemodynamic and regional circulatory effects of ET-1: BQ123 10 μg ICV, centrally administered ET-1; for effect on hemodynamics or regional blood circulation: specific ETB receptor agonists, separate experiments"}, "[2]": {"experiment": "Effect of ET-1 infusion on brain blood flow in control and Aβ-treated rats", "type": "in vivo, rat", "conditions": "30 minutes infusion; Aβ-treated vs control rats", "procedure": "Studies in 3-month-old rats to determine the effect of Aβ on systemic hemodynamics and regional blood circulation were performed. […] The effect of ET-1 on the brain blood flow of control and Aβ treated rats also was determined (FIG. 4).\nOnce infusion was stopped, a rebound increase in blood flow was observed. It can be inferred that Aβ increased the endogenous concentration of ET-1, leading to vasoconstriction. Accordingly, the administration of an ET-1 antagonist can cause a rebound increase in blood flow."}, "[3]": {"system": "sympathetic nerve activity", "conditions": "ET-1 90 ng; cited from earlier work"}}, "note": "Bridge positions count the residues as written; N and C are the ends. Square brackets hold non-standard residues; d marks the D form. Ends that are not written are not given here. Peptide text beside a SMILES is read from it."}
{"compound": "CC(C)C[C@@H]1NC(=O)[C@@H](C(C)C)NC(=O)[C@@H]2CCCN2C(=O)[C@@H](CC(=O)O)NC(=O)[C@@H](Cc2c[nH]c3ccccc23)NC1=O", "note": "[BQ123, cyclo(-D-Trp-D-Asp-Pro-D-Val-Leu-)] (cyclo(L[dW][dD]P[dV]))", "values": [{"measurement": "effect of pretreatment on systemic hemodynamic and regional circulatory effects of ET-1", "setting": "[1]", "result": "blocked"}]}
{"compound": "CC(C)NCC(O)COc1cccc2ccccc12", "note": "(stereo not drawn) [propranolol]", "values": [{"measurement": "effect of pretreatment on systemic hemodynamic and regional circulatory effects of ET-1", "setting": "[1]", "result": "blocked"}]}
{"compound": "ET-1: endothelin-1, a potent cerebrovascular vasoconstrictor peptide; ETA receptor agonist (CSCSSLMDKECVYFCHLDIIW; disulfide 1-15, 3-11; ends not checked; UniProt P05305 53-73, looked up)", "values": [{"measurement": "effect of ET-1 infusion on brain blood flow", "setting": "[2]", "result": "more marked in Aβ-treated rats"}, {"measurement": "cardiac output and stroke volume", "setting": "[1]; 45 ng ICV", "result": "significant decreases"}, {"measurement": "total peripheral resistance", "setting": "[1]; 45 ng ICV", "result": "remained unchanged"}, {"measurement": "sympathetic nerve activity", "setting": "[3]", "result": "significantly decreased"}]}
{"compound": "ET-2: ETA receptor agonist (CSCSSWLDKECVYFCHLDIIW; disulfide 1-15, 3-11; ends not checked; UniProt P20800 49-69, looked up)", "values": [{"measurement": "intensity of effects in comparison to ET-1 and SRT6b", "setting": "[1]; ET-2 90 ng ICV", "result": "less intense"}]}
{"compound": "ET-3: specific ETB receptor agonist", "values": [{"measurement": "effect on hemodynamics or regional blood circulation", "setting": "[1]", "result": "did not affect"}]}
{"compound": "sarafotoxin 6c", "values": [{"measurement": "effect on hemodynamics or regional blood circulation", "setting": "[1]", "result": "did not affect"}]}
